Converted amounts (≈) assume the structure as drawn.
Experiments:
[1] = biological target: T1, Enoyl-[acyl-carrier-protein] reductase [NADH] (Mycobacterium tuberculosis) (UniProt P9WGR1); experiment: Inhibition of replicating Mycobacterium tuberculosis H37Rv InhA assessed as cell growth inhibition after 7 days by MABA method
T1 sequence (whole entry): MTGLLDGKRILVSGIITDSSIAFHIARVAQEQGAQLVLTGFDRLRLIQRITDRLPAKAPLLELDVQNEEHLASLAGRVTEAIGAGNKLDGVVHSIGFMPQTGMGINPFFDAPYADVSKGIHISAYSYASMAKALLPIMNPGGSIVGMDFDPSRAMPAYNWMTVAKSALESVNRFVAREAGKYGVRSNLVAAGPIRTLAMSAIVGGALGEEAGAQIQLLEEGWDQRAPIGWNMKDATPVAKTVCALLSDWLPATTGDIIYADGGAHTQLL

[2] = Cytotoxicity against HEK293 cells assessed as inhibition of cell viability at 25 ug/ml after 48 hrs by MTT assay relative to control; type: cell-based; details: human, read-out: INH

SMILES	MIC [1] [µg/mL]	cytotoxicity at 48 h, 25 ug/ml [2] [%]
O=C(NNC(=O)[C@H](Cc1ccc(O)cc1)NC(=O)c1ccc(-c2ccc(F)cc2)s1)c1ccc(Cl)cc1	0.78 (≈ 1.45 µM)	17
O=C(NNC(=O)[C@H](Cc1ccc(O)cc1)NC(=O)c1ccc(-c2ccc(F)cc2)s1)c1ccc(F)cc1	6.25 (≈ 12 µM)	22.9
COc1ccc(C(=O)NNC(=O)c2ccc(-c3ccccc3SC)s2)cc1	> 25	
Cc1ccc(C(=O)NNC(=O)[C@H](Cc2ccc(O)cc2)NC(=O)c2ccc(-c3ccccc3)o2)cc1	12.5 (≈ 25.9 µM)	
O=C(NNC(=O)[C@H](Cc1ccc(O)cc1)NC(=O)c1ccc(-c2ccc(F)cc2)o1)c1ccc(Br)cc1	25 (≈ 44.1 µM)	
CO[C@H]1/C=C/O[C@@]2(C)Oc3c(C)c(O)c4c(O)c(c(/C=N/N5CCN(C)CC5)c(O)c4c3C2=O)NC(=O)/C(C)=C\C=C\[C@H](C)[C@H](O)[C@@H](C)[C@@H](O)[C@@H](C)[C@H](OC(C)=O)[C@@H]1C	0.2 (≈ 0.243 µM)	
COc1ccc(C(=O)NNC(=O)c2ccc(-c3ccc(SC)cc3)o2)cc1	0.78 (≈ 2.04 µM)	17.4
Cc1ccc(C(=O)NNC(=O)c2ccc(-c3ccccc3S(C)(=O)=O)o2)cc1	3.12 (≈ 7.84 µM)	22.9
CC(C)(C)c1ccc(C(=O)NNC(=O)[C@H](Cc2ccc(O)cc2)NC(=O)c2ccc(Br)o2)cc1	3.12 (≈ 5.91 µM)	26.6
COc1ccc(C(=O)NNC(=O)[C@H](Cc2ccc(O)cc2)NC(=O)c2ccc(-c3ccc(OC)cc3)o2)cc1	0.78 (≈ 1.47 µM)	29.9
CSc1ccc(-c2ccc(C(=O)NNC(=O)c3ccco3)o2)cc1	6.25 (≈ 18.3 µM)	11.6
O=C(NNc1nc2ccccc2s1)c1ccc(-c2ccccc2)o1	25 (≈ 74.5 µM)	
CSc1ccc(-c2ccc(C(=O)NNC(=O)c3ccccc3F)o2)cc1	6.25 (≈ 16.9 µM)	16.9
CSc1ccc(-c2ccc(C(=O)NNC(=O)c3ccc(C(C)(C)C)cc3)o2)cc1	6.25 (≈ 15.3 µM)	10.6
COc1ccc(C(=O)NNC(=O)[C@H](Cc2ccc(O)cc2)NC(=O)c2ccc(Br)o2)cc1	> 25	
O=C(N[C@@H](Cc1ccc(O)cc1)C(=O)NNC(=O)c1ccccc1F)c1ccc(-c2ccc(F)cc2)s1	> 25	
O=C(NNC(=O)[C@H](Cc1ccc(O)cc1)NC(=O)c1ccc(Br)o1)c1ccc(F)cc1	> 25	
NNC(=O)c1ccncc1	0.1 (≈ 0.729 µM)	
O=C(NNC(=O)[C@H](Cc1ccc(O)cc1)NC(=O)c1ccc(-c2ccccc2)o1)c1ccc(Br)cc1	0.78 (≈ 1.42 µM)	16.3
O=C(NNC(=O)[C@H](Cc1ccc(O)cc1)NC(=O)c1ccc(Br)o1)c1ccc(Cl)cc1	12.5 (≈ 24.7 µM)	
CSc1ccc(-c2ccc(C(=O)NNC(=O)c3ccc(F)cc3)o2)cc1	0.39 (≈ 1.05 µM)	27
CC[C@@H](CO)NCCN[C@@H](CC)CO	1.56 (≈ 7.64 µM)	
COc1ccccc1C(=O)NNC(=O)c1ccc(-c2ccc(SC)cc2)o1	12.5 (≈ 32.7 µM)	
CSc1ccc(-c2ccc(C(=O)NNC(=O)c3ccc(O)cc3)o2)cc1	0.78 (≈ 2.12 µM)	17.4
COc1ccc(C(=O)NNC(=O)[C@H](Cc2ccc(O)cc2)NC(=O)c2ccc(-c3ccc(F)cc3)s2)cc1	1.56 (≈ 2.92 µM)	23.6
CC(C)(C)c1ccc(C(=O)NNC(=O)[C@H](Cc2ccc(O)cc2)NC(=O)c2ccc(-c3ccccc3)o2)cc1	0.78 (≈ 1.48 µM)	18.7

Source: ChEMBL document CHEMBL4270581, “Synthesis of carbohydrazides and carboxamides as anti-tubercular agents” (Eur J Med Chem, 2018)
